Patent US12121540B2, “CBL inhibitors and compositions for use in adoptive cell therapy” (Nurix Therapeutics, Inc., priority 2019, dated 2024)

Legend:
[1] = tested on: human tumor-infiltrating lymphocytes (TIL); test: Rapid Expansion Protocol (REP) of TIL; assay type: cell-based; details: day 42 (Pre-REP and REP)
Experimental: PBMC, OKT3 antibody (30 ng/mL), complete medium (“CM”), AIM V media (GIBCO/BRL), and TIL effector cells were combined, mixed, and aliquoted to a 75 cm^2 tissue culture flask. Flasks were incubated upright at 37° C. in 5% CO2. […] About 14 days after initiation of the REP, cells were harvested and cryopreserved for future experimental analysis.

[2] = tested on: E.G7-OVA tumors; test: Adoptive transfer of ex vivo expanded OT-1 cells into E.G7-OVA tumor-bearing mice: antitumor response; assay type: in vivo, mouse
Excerpt: Antigen specific T cells from transgenic mice can be leveraged as a model for CAR T or TIL expansion ex vivo with a Cbl inhibitor. The OT-1 transgenic animals, that are commercially available, have CD8 T cells that recognize OVA peptide aa 257-264 when presented by the MHC I molecule. CD8+ T cells from OT-1 mice were isolated from a single cell suspension of splenocytes by negative selection (StemCell Technologies cat #19853 EasySep™ Mouse CD8+ T Cell Isolation Kit). Cell were then resuspended in complete media (RPMI1640, 10% heat inactivated FBS, 1× Penicillin/Streptomycin, 1× Glutamine and […]-mercaptoethanol) at concentration of 0.5×10^6 per mL. Six well tissue culture plates (Falcon) were coated with 2 ug/mL of anti-mouse CD3 (Bio Xcell Cat #BE0001-1-R100 mg InVivoMAb anti-mouse CD3ε Clone: 145-2C11) for >3 hrs at 37° C. and washed with PBS (MediaTech) prior to cell addition. […] Following three days of OT-1 T cell activation and expansion the cells were collected, counted and immunophenotyped by flow cytometry by measuring expression of differentiation and additional T cell makers including: CD3, CD4, CD8, CD45, CD25, Granzyme B, CD107a, CD127, PD-1, TIM3, LAG3, KLRG-1, ICOS, TCF1, Ki67, T-bet and FOXP3.
(§1) Dead cells were removed (Miltenyi Biotec Cat #130-090-101) prior to transfer in vivo to monitor their trafficking and function in an EG.7 lymphoma model, which expresses the OVA antigen. Approximately five million cells per mouse were transferred to mice having an average tumor burden of about 70 mm^3. Following in vivo transfer of the OT-1 cells, antitumor response was monitored over time and the quality and quantity of immune response were assessed at various time points.
(§2) The expanded OT-1 cells were characterized by FACS analysis and transferred into E.G7-OVA mice, which bear ovalbumin (OVA) expressing tumors. Following in vivo transfer of expanded OT-1 cells, antitumor response was monitored over time and the quality and quantity of immune response was assessed at various time points. Analysis included FACS analysis on blood, tumor, and spleen samples. Analysis also included re-stimulation of splenocytes with OVA Class I peptide to evaluate the multifunctionality of the antigen-specific effector T cells.
(§3) On Day 0, E.G7-OVA cells were implanted into each mouse. On Day 5, approximately 5×10^6 in vitro expanded OT-1 cells were injected into the tail of each mouse. On Day 9, blood was analyzed by FACS. On Day 14, blood, tumor and spleen samples were analyzed by FACS. On Day 27, blood was analyzed by FACS. Tumor volume was measured approximately every five days through about 50 days post implant.

[3] = tested on: OT-1 cells; test: FACS of transferred OT-1 cells in blood and tumor of E.G7-OVA mice; assay type: in vivo, mouse
Experimental: as §1, §2, §3
OT-1 cells were expanded according to the previous examples and administered to E.G7-OVA mice, which bear ovalbumin (OVA) expressing tumors. The cells were evaluated for their in vivo properties.
Expanded OT-1 cells were assessed in blood 4 days and 22 days after transfer.
Expanded OT-1 cells were assessed in tumors 4 days after transfer.

[4] = tested on: CD8+ and CD4+ TIL; test: CD107a and granzyme B in TIL after anti-CD3/CD28 stimulation; assay type: cell-based, human
Experimental: In the context of cytotoxicity, granzyme B (Grb), a protease secreted to mediate apoptosis, was assessed.

[5] = tested on: TIL; test: Cytokine and chemokine secretion of expanded TIL (Luminex); assay type: cell-based, human
Experimental: Also assessed were cytokines and chemokines secreted during the 14 day expansion in GREX.
Supernatants were assessed by Luminex.

[6] = Compound stability in complete RPMI with 10% human serum (mass spectrometry); assay type: physicochemical
Experimental: To assess compound stability, at day 1, 1 μM compound 103 or DMSO was added to complete RMPI containing 10% human serum and stored at either 4° C., 22° C. or 37° C. over an 11 day time period. Concentration of compound 103 was assessed at each indicated timepoint and storage temperature by mass spectrometry. Compound 103 was stable for at least 11 days in RPMI medium (FIG. 33).

[7] = IL-2 + compound 103, upon stimulation
[8] = expanded with IL2 + compound 103, anti-CD3/CD28 6 hours

## C[C@@H]1CN(Cc2cc3c(c(C(F)(F)F)c2)CN(c2cccc(C4(Cc5nncn5C)COC4)c2)C3=O)CCC1(F)F [compound 103]
[1]; TIL1 (ovary), 0.1 μM Cbl-i
  Expansion of TIL (REP), total cell number relative to IL-2 alone: 40%
[1]; TIL1 (ovary), 1.0 μM Cbl-i
  Expansion of TIL (REP), total cell number relative to IL-2 alone: 42%
[1]; TIL1 (ovary), 10 μM Cbl-i
  Expansion of TIL (REP), total cell number relative to IL-2 alone: 32%
[1]; TIL1 (ovary), IL-2 + 0.1 μM Cbl-i
  Expansion of TIL (REP), total cell number relative to IL-2 alone: 50%
[1]; TIL1 (ovary), IL-2 + 1.0 μM Cbl-i
  Expansion of TIL (REP), total cell number relative to IL-2 alone: 52%
[1]; TIL1 (ovary), IL-2 + 10 μM Cbl-i
  Expansion of TIL (REP), total cell number relative to IL-2 alone: 49%
[1]; TIL3 (ovary), 0.1 μM Cbl-i
  Expansion of TIL (REP), total cell number relative to IL-2 alone: 127%
[1]; TIL3 (ovary), 1.0 μM Cbl-i
  Expansion of TIL (REP), total cell number relative to IL-2 alone: 150%
[1]; TIL3 (ovary), 10 μM Cbl-i
  Expansion of TIL (REP), total cell number relative to IL-2 alone: 107%
[1]; TIL3 (ovary), IL-2 + 0.1 μM Cbl-i
  Expansion of TIL (REP), total cell number relative to IL-2 alone: 193%
[1]; TIL3 (ovary), IL-2 + 1.0 μM Cbl-i
  Expansion of TIL (REP), total cell number relative to IL-2 alone: 207%
[1]; TIL3 (ovary), IL-2 + 10 μM Cbl-i
  Expansion of TIL (REP), total cell number relative to IL-2 alone: 197%
[1]; TIL4 (colon), 0.1 μM Cbl-i
  Expansion of TIL (REP), total cell number relative to IL-2 alone: 80%
[1]; TIL4 (colon), 1.0 μM Cbl-i
  Expansion of TIL (REP), total cell number relative to IL-2 alone: 80%
[1]; TIL4 (colon), 10 μM Cbl-i
  Expansion of TIL (REP), total cell number relative to IL-2 alone: 107%
[1]; TIL4 (colon), IL-2 + 0.1 μM Cbl-i
  Expansion of TIL (REP), total cell number relative to IL-2 alone: 167%
[1]; TIL4 (colon), IL-2 + 1.0 μM Cbl-i
  Expansion of TIL (REP), total cell number relative to IL-2 alone: 194%
[1]; TIL4 (colon), IL-2 + 10 μM Cbl-i
  Expansion of TIL (REP), total cell number relative to IL-2 alone: 240%
[1]; TIL6 (ovary), 0.1 μM Cbl-i
  Expansion of TIL (REP), total cell number relative to IL-2 alone: 51%
[1]; TIL6 (ovary), 1.0 μM Cbl-i
  Expansion of TIL (REP), total cell number relative to IL-2 alone: 63%
[1]; TIL6 (ovary), 10 μM Cbl-i
  Expansion of TIL (REP), total cell number relative to IL-2 alone: 49%
[1]; TIL6 (ovary), IL-2 + 0.1 μM Cbl-i
  Expansion of TIL (REP), total cell number relative to IL-2 alone: 206%
[1]; TIL6 (ovary), IL-2 + 1.0 μM Cbl-i
  Expansion of TIL (REP), total cell number relative to IL-2 alone: 180%
[1]; TIL6 (ovary), IL-2 + 10 μM Cbl-i
  Expansion of TIL (REP), total cell number relative to IL-2 alone: 168%
[2]; 3-day ex vivo exposure, alone or in combination with IL-2
  Anti-tumor phenotype of transferred T cells vs controls: conferred a lasting anti-tumor phenotype for over a month
[2]; OT-1 cells expanded with compound 103, FIG. 12A
  Inhibition of tumor growth vs IL-2 expanded cells: more pronounced inhibition of tumor growth
[2]; OT-1 cells expanded with compound 103, FIG. 12B
  Long-term survival vs IL-2 expanded cells: improved long-term survival
[2]; OT-1 cells expanded with compound 103 plus IL-2, FIG. 12A
  Inhibition of tumor growth vs single agents alone: more pronounced inhibition of tumor growth
[2]; OT-1 cells expanded with compound 103 plus IL-2, FIG. 12B
  Long term survival vs single agents alone: superior long term survival
[2]; expanded with compound 103 (1 μM) alone, FIGS. 11A and 11B
  Potency of expanded CD8+ OT-1 cells (tumor volume) vs IL-2 expanded: at least as potent
[2]; mice subcutaneously implanted with E.G7-OVA cells, FIG. 9
  Rejection of established tumors by expanded OT-1 cells: potent effectors capable of rejecting established tumors
[3]; Cbl inhibitor expanded, 4 and 22 days after transfer
  Frequency in total CD45+ cells and persistence in blood vs IL-2 alone or anti-CD3 alone: higher frequency in total CD45+ cells and persisted longer
[3]; Cbl inhibitor expanded, 4 days after transfer
  Tumor infiltration (frequency in total CD45+ cells in tumor) vs IL-2 alone or anti-CD3 alone: increased ability to infiltrate the tumor
[3]; OT-1 cells expanded with Cbl inhibitor
  OT-1 cells expressing stem markers TCF1+, PD-1+, TIM-3−: greater percentage of cells that expressed stem markers
[3]; expanded with Cbl inhibitor and IL-2, 4 and 22 days after transfer
  Frequency in total CD45+ cells and persistence in blood: even higher frequency in total CD45+ cells and higher persistence
[3]; expanded with Cbl inhibitor and IL-2, 4 days after transfer
  Tumor infiltration (frequency in total CD45+ cells in tumor): highest frequency in total CD45+ cells
[3]; expanded with Cbl inhibitor or Cbl inhibitor plus IL-2
  Expression of exhaustion markers PD1, TIM3, LAG3 in tumor vs IL-2 alone: lower level of expression of exhaustion markers
[4]; [7]
  CD107A+GRB+ cells: significant increase
  Granzyme B (Grb) produced in TIL vs IL-2 alone: significant increase of Grb
[4]; [8]
  CD4+ TIL capable of producing CD107a: greater than 60%
  CD8+ TIL capable of producing CD107a: greater than 60%
[5]; IL-2 + compound 103
  GMCSF, MIP1α, MIP1β and IP10 secreted during 14 day expansion in GREX: trending increases
  IFN-γ secreted during 14 day expansion in GREX: significant increase of IFN-γ
[5]; high dose IL-2 + 1 μM compound 103, 24 hours
  Secretion of IL-2, IL-5, IL-7, IL-21, IL-23, TNF-α, and IFN-γ upon stimulation: significant secretion
[5]; high dose IL-2 + 1 μM compound 103, anti-CD3/CD28 24 hours
  Secretion of MIP1α and MIP1β upon stimulation: significant increases in secretion
[6]; 1 μM, complete RPMI with 10% human serum, 4° C., 22° C. or 37° C.
  Stability in RPMI medium: at least 11 days
[6]; 4° C.-37° C., 11 day period, FIG. 33
  Stability at multiple temperatures: stable
